One experiment deals with T1, native TRPL channels (Drosophila melanogaster, UniProt P48994).
T1 construct: from tissue; host or cells: dissociated ommatidia of newly emerged white-eyed trpP343 flies
T1 sequence (P48994 1-1124): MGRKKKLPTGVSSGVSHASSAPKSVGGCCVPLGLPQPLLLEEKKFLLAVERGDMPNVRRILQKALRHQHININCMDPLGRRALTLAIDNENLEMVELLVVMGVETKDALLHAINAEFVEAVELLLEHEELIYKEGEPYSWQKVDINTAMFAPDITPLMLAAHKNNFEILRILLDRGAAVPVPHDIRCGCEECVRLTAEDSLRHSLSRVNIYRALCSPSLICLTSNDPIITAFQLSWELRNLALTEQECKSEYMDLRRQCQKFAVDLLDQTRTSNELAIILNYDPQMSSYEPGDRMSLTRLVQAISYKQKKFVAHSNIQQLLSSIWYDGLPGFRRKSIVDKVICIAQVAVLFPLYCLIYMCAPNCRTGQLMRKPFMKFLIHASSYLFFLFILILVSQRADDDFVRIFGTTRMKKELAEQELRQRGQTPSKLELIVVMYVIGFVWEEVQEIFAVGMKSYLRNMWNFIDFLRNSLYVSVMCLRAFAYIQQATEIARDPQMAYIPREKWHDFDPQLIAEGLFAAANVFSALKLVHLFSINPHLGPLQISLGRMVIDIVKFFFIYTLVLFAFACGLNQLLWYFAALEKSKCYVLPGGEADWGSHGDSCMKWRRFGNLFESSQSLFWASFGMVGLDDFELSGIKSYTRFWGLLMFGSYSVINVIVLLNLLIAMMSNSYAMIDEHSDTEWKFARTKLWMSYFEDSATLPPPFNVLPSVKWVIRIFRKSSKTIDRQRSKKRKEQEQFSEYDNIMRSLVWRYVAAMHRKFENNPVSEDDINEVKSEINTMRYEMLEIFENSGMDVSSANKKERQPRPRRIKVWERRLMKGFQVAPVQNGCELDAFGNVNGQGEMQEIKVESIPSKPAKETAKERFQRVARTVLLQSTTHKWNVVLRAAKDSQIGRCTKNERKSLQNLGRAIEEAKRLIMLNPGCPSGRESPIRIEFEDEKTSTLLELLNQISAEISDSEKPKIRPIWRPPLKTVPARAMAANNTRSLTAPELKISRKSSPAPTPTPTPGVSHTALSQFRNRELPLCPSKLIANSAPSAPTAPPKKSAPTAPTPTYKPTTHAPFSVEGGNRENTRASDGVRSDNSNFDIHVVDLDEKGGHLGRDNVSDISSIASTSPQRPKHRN
The experiment is described as follows: Light-induced current (LIC) in isolated ommatidia of trp^P343 mutant (native TRPL). The format is cell-based. The settings on record: trp^P343 mutant photoreceptor cells, 500 μM. From the text:
Series resistance was compensated to ˜80%.
All solutions were titrated to pH 7.15. […] All solutions were titrated to pH 7.2. […] Chemicals were applied via the perfusion system.

A further experiment concerns the target T2, TRPL channels (Drosophila melanogaster, UniProt P48994).
T2 sequence (P48994 1-1124): T1 sequence (P48994 1-1124)
The experiment is described as follows: Whole-cell patch clamp of TRPL channels expressed in S2 cells.

Entries after “also recorded” stand apart in the source; their conditions may differ.

`Cc1ccc(C(C)C)cc1O` [Compound IX, 5-Isopropyl-2-methylphenol]: the “Effect on light-induced current (LIC) amplitude, native TRPL” value at native TRPL channels was “dramatically reduced LIC amplitude; also recorded: inhibits the native TRPL channels”. Further, on TRPL channels (S2 cells), the “Reversibility of effect on TRPL channel” value is recorded as “reversibly blocked”. The “Effect on current when TRPL channels were not expressed (control)” value on TRPL channels (S2 cells without TRPL expression, IX 500 μM, XVII 5 mM) is reported as “no effect”. In addition, the “Effect on TRPL-mediated current” value at TRPL channels (S2 cells, IX 500 μM, XIII 3 mM, XIV 1 mM, XII 2 mM, XV up to 5 mM, X 5 mM, XVI 5 mM, XVII 5 mM, XI 10 mM) was “Large suppression of the current; also recorded: large decrease in the TRPL-dependent current”. Moreover, the “TRPL Activation/Inhibition” value on TRPL channels (TRPL expressed in S2 cells) was “Inhibition”.

The values above are taken from patent publication US20110281949A1, “METHODS AND COMPOSITIONS FOR TREATING NEURONAL DAMAGE AND MODULATING TRANSIENT RECEPTOR POTENTIAL CHANNELS” (priority 2008, published 2011).
